Laboratory results from patent US20230091047A1 (priority 2019, published 2023).

Assays:
[1] = test system: HBV (HepG2.117 cell line, inducibly HBV producing); experiment: Anti-HBV activity: intracellular HBV DNA by real-time PCR in HepG2.117 cells after 3 days of treatment; format: cell-based, hepatitis B virus; conditions: Hepatitis B virus, HepG2.117, 72 h, HepG2.117 cells, intracellular HBV DNA by real-time PCR, 3 days of treatment, mean value; read-out: EC50 (μM, mean value)
Method in brief: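 Readout is intracellular HBV DNA, measured by real-time PCR with HBV-specific primers and probe after 3 days of exposure to serial compound dilutions. Cells are the stable HepG2.117 line, where HBV replication is induced in the absence of doxycycline.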

in vitro = format: cell-based; conditions: human, HepG2 or HepG2.117 cells, ATPlite, 3-days incubation (not marked with *), mean value
Method in brief: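 Luminescent ATP quantitation served as the viability endpoint following a 3- or 4-day incubation with test compounds.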

Row | Structure (SMILES) | EC50 [1] [µM] | CC50 at 3 days (in vitro) [µM]
1 | CNC(=O)c1ccc(-n2c(NC(C)C)nc3c(c2=O)C[C@@H](C)N(C(=O)c2cc4ccncc4s2)C3)cc1 [Compound C503] | 6.32 | > 50
2 | CNC(=O)c1ccc(-n2c(NC(C)C)nc3c(c2=O)C[C@@H](C)N(C(=O)c2cccc(Cl)c2OC)C3)cc1 [Compound C504] | 1.01 | > 50
3 | CNC(=O)c1ccc(-n2c(NC(C)C)nc3c(c2=O)C[C@@H](C)N(C(=O)c2cc4c(F)cccc4[nH]2)C3)cc1 [Compound C505] | 0.02 | 25.6
4 | CNC(=O)c1ccc(-n2c(NC(C)C)nc3c(c2=O)C[C@@H](C)N(C(=O)c2cc(C)c(C#N)c(C)c2)C3)cc1 [Compound C506] | 0.94 | > 50
5 | CNC(=O)c1ccc(-n2c(NC(C)C)nc3c(c2=O)C[C@@H](C)N(C(=O)c2ccc(C)cc2)C3)cc1 [Compound C507] | 2.89 | > 50
6 | CNC(=O)c1ccc(-n2c(NC(C)C)nc3c(c2=O)C[C@@H](C)N(C(=O)c2ccc(C#N)c(Cl)c2)C3)cc1 [Compound C508] | 0.88 | > 50
7 | CNC(=O)c1ccc(-n2c(NC(C)C)nc3c(c2=O)C[C@@H](C)N(C(=O)c2ccc4[nH]c(=O)n(C)c4c2)C3)cc1 [Compound C509] | > 25 | > 50
8 | CNC(=O)c1ccc(-n2c(NC(C)C)nc3c(c2=O)C[C@@H](C)N(C(=O)c2ccc4c(c2)[nH]c(=O)n4C)C3)cc1 [Compound C510] | 9.42 | > 50
9 | CNC(=O)c1ccc(-n2c(NC(C)C)nc3c(c2=O)C[C@@H](C)N(C(=O)c2ccc(Br)cc2F)C3)cc1 [Compound C511] | 2.41 | > 50
10 | CNC(=O)c1ccc(-n2c(NC(C)C)nc3c(c2=O)C[C@@H](C)N(C(=O)c2ccc(Br)c(F)c2OC)C3)cc1 [Compound C512] | 1.11 | > 50
11 | CNC(=O)c1ccc(-n2c(NC(C)C)nc3c(c2=O)C[C@@H](C)N(C(=O)c2ccc(Br)cc2OC)C3)cc1 [Compound C513] | 22.1 | > 50
12 | CNC(=O)c1ccc(-n2c(NC(C)C)nc3c(c2=O)C[C@@H](C)N(C(=O)c2ccc(C)c(Cl)c2)C3)cc1 [Compound C514] | 0.61 | > 50
13 | CNC(=O)c1ccc(-n2c(NC(C)C)nc3c(c2=O)C[C@@H](C)N(C(=O)c2ccc(C)c(F)c2)C3)cc1 [Compound C515] | 1.14 | > 50
14 | CNC(=O)c1ccc(-n2c(NC(C)C)nc3c(c2=O)C[C@@H](C)N(C(=O)c2cc4ccc(OC)cc4n2C)C3)cc1 [Compound C516] | 2.68 | > 50
15 | CNC(=O)c1ccc(-n2c(N[C@H](C)c3cnnn3C)nc3c(c2=O)C[C@@H](C)N(C(=O)c2ccc(Cl)c(Cl)c2)C3)cc1 [Compound C517] | > 25 | > 50
16 | CNC(=O)c1ccc(-n2c(N3CCOCC(C)C3)nc3c(c2=O)C[C@@H](C)N(C(=O)c2ccc(Cl)c(Cl)c2)C3)cc1 (some centres unmarked) [Compound C518] | 0.47 | > 50
17 | CNC(=O)c1ccc(-n2c(NC(C)C)nc3c(c2=O)C[C@@H](C)N(C(=O)c2cc(F)c(Br)c(F)c2)C3)cc1 [Compound C519] | 0.02 | > 50
18 | CNC(=O)c1ccc(-n2c(NC(C)C)nc3c(c2=O)C[C@@H](C)N(C(=O)c2ccc(Cl)cc2F)C3)cc1 [Compound C520] | 3.74 | > 50
19 | CNC(=O)c1ccc(-n2c(NC(C)C)nc3c(c2=O)C[C@@H](C)N(C(=O)c2cc(Cl)c(Br)cc2OC)C3)cc1 [Compound C521] | 7.64 | > 50
20 | CNC(=O)c1ccc(-n2c(NC(C)C)nc3c(c2=O)C[C@@H](C)N(C(=O)c2ccc(Br)cc2OC(F)F)C3)cc1 [Compound C522] | 0.77 | > 50
21 | CNC(=O)c1ccc(-n2c(NC(C)C)nc3c(c2=O)C[C@@H](C)N(C(=O)c2cc(Br)c(Cl)cc2OC)C3)cc1 [Compound C523] | 18 | > 50
22 | CNC(=O)c1ccc(-n2c(NC(C)C)nc3c(c2=O)C[C@@H](C)N(C(=O)c2cc4ccc(OC)cc4s2)C3)cc1 [Compound C524] | 1.36 | > 50

Row | Structure (SMILES) | EC50 [1] [µM] | CC50 at 3 days (in vitro) [µM]
23 | CNC(=O)c1ccc(-n2c(NC(C)C)nc3c(c2=O)C[C@@H](C)N(C(=O)c2ccc(OC(F)(F)F)c(Cl)c2)C3)cc1 [Compound C525] | 0.15 | > 50
24 | CNC(=O)c1cc(-n2c(NC(C)c3ccc(OC(F)(F)F)cc3)nc3c(c2=O)C[C@@H](C)N(C(=O)c2ccc(Cl)c(Cl)c2)C3)[nH]n1 (some centres unmarked) [Compound C531] | 0.21 | 26.3
25 | C[C@H](Nc1nc2c(c(=O)n1-c1ccc(-n3cccn3)cc1)C[C@@H](C)N(C(=O)c1ccc(Cl)c(Cl)c1)C2)c1ccc(C(F)(F)F)cc1 [Compound C532] | 0.16 | > 50
26 | CNC(=O)c1ccc(-n2c(N[C@@H](C)c3ccc(C(F)(F)F)cc3)nc3c(c2=O)C[C@@H](C)N(C(=O)c2ccc(Cl)c(Cl)c2)C3)cn1 [Compound C533] | 0.11 | > 50
27 | CNC(=O)c1cc(-n2c(N[C@@H](C)c3ccc(C(F)(F)F)cc3)nc3c(c2=O)C[C@@H](C)N(C(=O)c2ccc(Cl)c(Cl)c2)C3)n(C)n1 [Compound C534] | 0.14 | > 50
28 | CNC(=O)c1ccc(-n2c(N[C@@H](C)c3ccc(OC(F)(F)F)cc3)nc3c(c2=O)C[C@@H](C)N(C(=O)c2ccc(Cl)c(Cl)c2)C3)cn1 [Compound C537] | 0.08 | > 50
29 | CNC(=O)c1ccc(-n2c(NCc3nnn(C)c3C(F)(F)F)nc3c(c2=O)C[C@@H](C)N(C(=O)c2ccc(Cl)c(Cl)c2)C3)cc1 [Compound C539] | 5.47 | > 50
30 | CNC(=O)c1ccc(-n2c(NC(C)Cn3cncn3)nc3c(c2=O)C[C@@H](C)N(C(=O)c2ccc(Cl)c(Cl)c2)C3)cc1 (some centres unmarked) [Compound C540] | 15.8 | > 50
31 | CNC(=O)c1ccc(-n2c(NCc3n[nH]c(C)n3)nc3c(c2=O)C[C@@H](C)N(C(=O)c2ccc(Cl)c(Cl)c2)C3)cc1 [Compound C541] | > 25 | > 50
32 | CNC(=O)c1ccc(-n2c(NCc3nncn3-c3ccccc3)nc3c(c2=O)C[C@@H](C)N(C(=O)c2ccc(Cl)c(Cl)c2)C3)cc1 [Compound C542] | 12.9 | > 50
33 | CNC(=O)c1ccc(-n2c(NCc3cccc(-n4cncn4)c3)nc3c(c2=O)C[C@@H](C)N(C(=O)c2ccc(Cl)c(Cl)c2)C3)cc1 [Compound C543] | 7.02 | > 50
34 | CNC(=O)c1ccc(-n2c(N(C)Cc3ccc4cnccc4c3)nc3c(c2=O)C[C@@H](C)N(C(=O)c2ccc(Cl)c(Cl)c2)C3)cc1 [Compound C544] | 0.6 | 26.7
35 | CNC(=O)c1ccc(-n2c(NCc3nnc(C(C)C)[nH]3)nc3c(c2=O)C[C@@H](C)N(C(=O)c2ccc(Cl)c(Cl)c2)C3)cc1 [Compound C545] | > 25 | > 50
36 | CNC(=O)c1ccc(-n2c(NCC3CC3C)nc3c(c2=O)C[C@@H](C)N(C(=O)c2ccc(Cl)c(Cl)c2)C3)cc1 (some centres unmarked) [Compound C547] | 0.97 | 47.2
37 | CNC(=O)c1ccc(-n2c(NC(C)Cc3c[nH]c4ccc(F)cc34)nc3c(c2=O)C[C@@H](C)N(C(=O)c2ccc(Cl)c(Cl)c2)C3)cc1 (some centres unmarked) [Compound C548] | 0.58 | 10.3
38 | CNC(=O)c1ccc(-n2c(NC3COC(C4CC4)C3)nc3c(c2=O)C[C@@H](C)N(C(=O)c2ccc(Cl)c(Cl)c2)C3)cc1 (some centres unmarked) [Compound C549] | 1.22 | > 50
39 | CNC(=O)c1ccc(-n2c(NC(C)c3cccs3)nc3c(c2=O)C[C@@H](C)N(C(=O)c2ccc(Cl)c(Cl)c2)C3)cc1 (some centres unmarked) [Compound C550] | 0.54 | 30.2
40 | CNC(=O)c1ccc(-n2c(NCC(C)c3nncn3C)nc3c(c2=O)C[C@@H](C)N(C(=O)c2ccc(Cl)c(Cl)c2)C3)cc1 (some centres unmarked) [Compound C551] | > 25 | > 50
41 | CNC(=O)c1ccc(-n2c(NCc3nnn(C)c3C(F)F)nc3c(c2=O)C[C@@H](C)N(C(=O)c2ccc(Cl)c(Cl)c2)C3)cc1 [Compound C552] | > 25 | > 50
42 | CNC(=O)c1ccc(-n2c(NCc3ncnn3-c3ccccc3)nc3c(c2=O)C[C@@H](C)N(C(=O)c2ccc(Cl)c(Cl)c2)C3)cc1 [Compound C553] | 23.7 | > 50
43 | CNC(=O)c1ccc(-n2c(NCc3cc(C(F)F)no3)nc3c(c2=O)C[C@@H](C)N(C(=O)c2ccc(Cl)c(Cl)c2)C3)cc1 [Compound C554] | 1.77 | > 50
